# Results reported in patent publication US20230227484A1, “PYRIMIDINE COMPOUND AS AXL INHIBITOR” (NANJING CHIA TAI TIANQING PHARMACEUTICAL CO., LTD., priority 2020, published 2023).
# Biological target: T1, AXL kinase (Homo sapiens, UniProt P30530)
# T1 construct: purchased Carna 08-107
# T1 sequence (P30530 473-894 limits assumed): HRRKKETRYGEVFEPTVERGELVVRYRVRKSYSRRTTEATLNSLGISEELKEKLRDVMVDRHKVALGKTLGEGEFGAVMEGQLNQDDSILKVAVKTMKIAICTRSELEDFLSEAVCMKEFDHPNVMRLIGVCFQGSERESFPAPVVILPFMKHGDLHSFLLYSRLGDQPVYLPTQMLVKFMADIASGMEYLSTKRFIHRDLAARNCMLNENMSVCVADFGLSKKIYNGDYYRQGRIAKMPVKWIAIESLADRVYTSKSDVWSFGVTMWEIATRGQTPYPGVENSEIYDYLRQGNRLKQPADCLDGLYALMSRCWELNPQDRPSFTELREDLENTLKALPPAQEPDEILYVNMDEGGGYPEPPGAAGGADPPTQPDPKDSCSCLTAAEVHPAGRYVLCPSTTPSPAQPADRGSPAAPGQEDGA
# Experiment: Inhibitory activity of compound against AXL kinase (HTRF KinEASE)
# Assay type: biochemical
# Details: AXL enzyme (Carna, 08-107), ATP 15 μM; "<" means below detection limit of the test
# Procedure: a) AXL enzyme (Carna, 08-107) configuration and addition: a 1×enzyme buffer (200 μL of Enzymatic buffer kinase 5×, 10 μL of 500 mM MgCl2, 10 μL of 100 mM DTT and 6.26 μL of 2500 nM SEB are added with […] of H2O, and prepared into 1 ml of 1× enzyme buffer) is used. AXL enzyme is diluted from 33.33 ng/uL to 0.027 ng/μL (1.67×, final conc.=0.016 ng/uL), a BioTek (MultiFlo FX) automatic liquid dispenser is used, and 6 μL of enzyme solution having a 1.67-fold final concentration is added respectively to compound wells and positive control wells; and 6 μL of 1×Enzymatic buffer is added to negative control wells.
# b) Compound preparation and addition: the compounds and positive drugs prepared in the examples are diluted from 10 mM to 100 μM by DMSO, and titrated with a compound titrator (Tecan, D300e). The titrated solution is automatically sprayed by the titrator to each well to reach a required concentration, wherein the first concentration is 1 μM, and after ½ log dilution, a total of 8 concentrations are obtained. The resulting mixture is centrifuged at 2500 rpm for 30 s and incubated at room temperature for 15 min.
# c) Preparation and addition of ATP and substrate: ATP (Sigma, A7699) is diluted with 1× enzyme buffer from 10 mM to 75 μM (5×), and the final concentration is 15 μM; the substrate TK Substrate 3-biotin (Cisbio, 61TK0BLC) is diluted with 1× enzyme buffer from 500 μM to 5 μM (5×), andthe final concentration is […]; ATP and the substrate are mixed in equal volume to obtain a mixed solution; the mixed solution is added to each well at 4 μL by using a BioTek automatic dispenser; centrifuged at 2500 rpm for 30 s, and reacted at 25° C. for 45 min.
# d) Pirparation and addition of detection reagent: Streptavidin-XL665 (Cisbio, 610SAXLG) is diluted with HTRF KinEASE detection buffer (cisbio) from 16.67 μM to 250 nM (4×), and the final concentration is 62.5 nM; TK Antibody-Cryptate (Cisbio) is diluted with HTRF KinEASE detection buffer (cisbio) from 100× to 5×, and the final concentration is 1×; XL665 and Antibody are mixed in equal volume; the mixed solution is added to each well at 10 μL by using the BioTek automatic dispenser, centrifuged at 2500 rpm for 30 s, and reacted at 25° C. for 1 h. After the reaction is completed, the resulting product is detected by a multi-function plate reader HTR1p
# GraphPad Prism 5 software log (inhibitor) vs. response-Variable slope is used to fit a dose-response curve to obtain the IC50 value of the compound to the inhibition of AXL kinase.
# The calculation formula of the inhibition rate is as follows: […]
row,SMILES,IC50
1,"CP(C)(=O)c1cc(N2CC3(COC3)C2)ccc1Nc1nc(Nc2ccc3c(c2)CC[C@@H](N2CCCC2)CC3)ncc1Cl [Example 119, (S)-(2-((5-chloro-2-((7-(pyrrolidin-1-yl)-6,7,8,9-tetrahydro-5H-benzo[7]annulen-2-yl)amino)pyrimidin-4-yl)amino)-5-(2-oxa-6-azaspiro[3.3]heptan-6-yl)phenyl)dimethyl phosphine oxide]",9.24 nM
2,"COCc1ccc(Nc2nc(Nc3ccc4c(c3)CCC(N3CC5CC3C5)CC4)ncc2Cl)c(P(C)(C)=O)c1 (single isomer, unassigned) [Example 116 Isomer 116-2, (2-((2-((7-(2-azabicyclo[2.1.1]hexan-2-yl)-6,7,8,9-tetrahydro-5H-benzo[7]annulen-2-yl)amino)-5-chloropyrimidin-4-yl)amino)-5-(methoxymethyl)phenyl)dimethyl phosphine oxide]",96.8 nM
3,"Clc1cnc(Nc2ccc3c(c2)CC[C@@H](N2CCCC2)CC3)nc1Nc1cccc2c1OCO2 [Example 9, (S)-4-(benzo[d][1,3]dioxo-4-yl)-5-chloro-2-(7-(pyrrolidin-1-yl)-6,7,8,9-tetrahydro-5H-benzo[7]annulen-2-yl)pyrimidine-2,4-diamine]",21.9 nM
4,"COc1cc(Nc2nc(Nc3ccc4c(c3)CC[C@@H](N3CCCC3)CC4)ncc2Cl)c(P(C)(C)=O)cc1F [Example 131, (S)-(2-((5-chloro-2-((7-(pyrrolidin-1-yl)-6,7,8,9-tetrahydro-5H-benzo[7]annulen-2-yl)amino)pyrimidin-4-yl)amino)-5-fluoro-4-methoxylphenyl)dimethyl phosphine oxide]",207 nM
5,"[2H]C([2H])([2H])P(=O)(c1cc(F)ccc1Nc1nc(Nc2ccc3c(c2)CC[C@@H](N2CCCC2)CC3)ncc1Cl)C([2H])([2H])[2H] [Example 57, (S)-(2-((5-chloro-2-((7-(pyrrolidin-1-yl)-6,7,8,9-tetrahydro-5H-benzo[7]annulen-2-yl)amino)pyrimidin-4-yl)amino)-5-fluorophenyl)bis(methyl-d3) phosphine oxide]",6.27 nM
6,"COCCNC(=O)c1ccccc1Nc1nc(Nc2ccc3c(c2)CC[C@@H](N2CCCC2)CC3)ncc1Cl [Example 38, (S)-2-((5-chloro-2-((7-(pyrrolidin-1-yl)-6,7,8,9-tetrahydro-5H-benzo[7]annulen-2-yl)amino)pyrimidin-4-yl)amino)-N-(2-methoxyethyl)benzamide]",6.24 nM
7,"CNC(=O)c1cnc(OC)cc1Nc1nc(Nc2ccc3c(c2)CC[C@@H](N2CCCC2)CC3)ncc1Cl [Example 43, (S)-4-((5-chloro-2-((7-(pyrrolidin-1-yl)-6,7,8,9-tetrahydro-5H-benzo[7]annulen-2-yl)amino)pyrimidin-4-yl)amino)-6-methoxyl-N-methylnicotinamide]",9.87 nM
8,"CNC(=O)c1ncccc1Nc1nc(Nc2ccc3c(c2)CC[C@@H](N2CCCC2)CC3)ncc1Cl [Example 33, (S)-3-((5-chloro-2-((7-(pyrrolidin-1-yl)-6,7,8,9-tetrahydro-5H-benzo[7]annulen-2-yl)amino)pyrimidin-4-yl)amino)-N-methylpicolinamide]",5.15 nM
9,"CNC(=O)c1cccnc1Nc1nc(Nc2ccc3c(c2)CC[C@@H](N2CCCC2)CC3)ncc1Cl [Example 21, (S)-2-((5-chloro-2-((7-(pyrrolidin-1-yl)-6,7,8,9-tetrahydro-5H-benzo[7]annulen-2-yl)amino)pyrimidin-4-yl)amino)-N-methylnicotinamide]",6.53 nM
10,"CC(C)Oc1ccccc1Nc1nc(Nc2ccc3c(c2)CC[C@@H](N2CCCC2)CC3)ncc1Cl [Example 8, (S)-5-chloro-4-(2-isopropoxyl)anilino-2-(7-(pyrrolidin-1-yl)-6,7,8,9-tetrahydro-5H-benzo[7]annulen-2-yl)pyrimidine]",8.28 nM
11,"Cc1cnc(-c2ccccc2Nc2nc(Nc3ccc4c(c3)CC[C@@H](N3CCCC3)CC4)ncc2Cl)o1 [Example 17, (S)-5-chloro-N^4-(2-(5-methyloxazol-2-yl)phenyl)-N^2-(7-(pyrrolidin-1-yl)-6,7,8,9-tetrahydro-5H-benzo[7]annulen-2-yl)pyrimidine-2,4-diamine]",27.9 nM
12,"CN(C)S(=O)(=O)c1ccc(Nc2nc(Nc3ccc4c(c3)CC[C@@H](N3CCCC3)CC4)ncc2Cl)cc1 [Example 3, (S)-4-((5-chloro-2-((7-(pyrrolidin-1-yl)-6,7,8,9-tetrahydro-5H-benzo[7]annulen-2-yl)amino)pyrimidin-4-yl)amino)-N,N-dimethyl benzenesulfonamide]",23.6 nM
13,"O=S(=O)(c1cccc(Nc2nc(Nc3ccc4c(c3)CC[C@@H](N3CCCC3)CC4)ncc2Cl)c1)N1CCCC1 [Example 5, (S)-5-chloro-N^2-(7-(pyrrolidin-1-yl)-6,7,8,9-tetrahydro-5H-benzo[7]annulen-2-yl)-N^4-(3-(pyrrolidin-1-ylsulfo)phenyl)pyrimidine-2,4-diamine]",20.7 nM
14,"COc1ccc(Nc2nc(Nc3ccc4c(c3)CC[C@@H](N3CCCC3)CC4)ncc2Cl)c(P(C)(C)=O)c1 [Example 55, (S)-(2-((5-chloro-2-((7-(pyrrolidin-1-yl)-6,7,8,9-tetrahydro-5H-benzo[7]annulen-2-yl)amino)pyrimidin-4-yl)amino)-5-methoxyphenyl)dimethyl phosphine oxide]",3.14 nM

# The next compounds have a lower IC50 than those just listed; values first:
row,IC50,SMILES
1,2.04 nM,"[2H]C([2H])([2H])P(=O)(c1ccccc1Nc1nc(Nc2ccc3c(c2)CC[C@@H](N2CCCC2)CC3)ncc1Cl)C([2H])([2H])[2H] [Example 56, (S)-(2-((5-chloro-2-((7-(pyrrolidin-1-yl)-6,7,8,9-tetrahydro-5H-benzo[7]annulen-2-yl)amino)pyrimidin-4-yl)amino)phenyl)bis(methyl-d3) phosphine oxide]"
2,1.81 nM,"[2H]c1ccc(Nc2nc(Nc3ccc4c(c3)CC[C@@H](N3CCCC3)CC4)ncc2Cl)c(P(C)(C)=O)c1 [Example 111, (S)-(2-((5-chloro-2-((7-(pyrrolidin-1-yl)-6,7,8,9-tetrahydro-5H-benzo[7]annulen-2-yl)amino)pyrimidin-4-yl)amino)phenyl-5-d)dimethyl phosphine oxide]"
3,2.03 nM,CC(C)Oc1ccc(Nc2nc(Nc3ccc4c(c3)CC[C@@H](N3CCCC3)CC4)ncc2Cl)c(P(C)(C)=O)c1 [Example 114]
4,1.7 nM,"CP(C)(=O)c1cc(Br)ccc1Nc1nc(Nc2ccc3c(c2)CC[C@@H](N2CCCC2)CC3)ncc1Cl [Example 110, (S)-(5-bromo 2-((5-chloro-2-((7-(pyrrolidin-1-yl)-6,7,8,9-tetrahydro-5H-benzo[7]annulen-2-yl)amino)pyrimidin-4-yl)amino)phenyl)dimethyl phosphine oxide]"
5,1.21 nM,"CNC(=O)c1cc(C(F)(F)F)ccc1Nc1nc(Nc2ccc3c(c2)CC[C@@H](N2CCCC2)CC3)ncc1Cl [Example 35, (S)-2-((5-chloro-2-((7-(pyrrolidin-1-yl)-6,7,8,9-tetrahydro-5H-benzo[7]annulen-2-yl)amino)pyrimidin-4-yl)amino)-N-methyl-5-(trifluoromethyl)benzamide]"
6,1.78 nM,"Cc1cc(Cl)cc(Nc2nc(Nc3ccc4c(c3)CC[C@@H](N3CCCC3)CC4)ncc2Cl)c1P(C)(C)=O [Example 117, (S)-(4-chloro-2-((5-chloro-2-((7-(pyrrolidin-1-yl)-6,7,8,9-tetrahydro-5H-benzoannulen-2-yl)amino)pyrimidin-4-yl)amino)-6-methylphenyl)dimethyl phosphine oxide]"
